According to patent US8604034B2, “Substituted imidazo[1,2-α]pyrrolo[1,2-d]pyrazines for treating respiratory syncytial virus (RSV) infections” (Biota Scientific Management Pty Ltd., priority 2010, dated 2013):
Where two headings read alike, the source gives them in different places.

System: RSV A2
Experiment: RSV antiviral cytopathic effect (CPE) assay
Format: cell-based
Conditions: human respiratory syncytial virus, HEp-2, 120 h, HEp2 cells infected with RSV A2 (moi ~0.01), 5 days, MTT readout
Description: Compounds of the invention were tested for their antiviral activity against respiratory syncytial virus. Cytopathic effect (CPE) assays were performed essentially as described in the literature (see for example Watanabe et al, 1994, J. Virological Methods, 48:257). Serial dilutions of the test compounds were made in 96 well plates. HEp2 cells (1.0×10^4 cells/well) were infected with RSV at a low multiplicity of infection (e.g. RSV A2 at an moi of ˜0.01) and added to plates to assess antiviral activity. Uninfected HEp2 cells were used to assess compound cytotoxicity. Assays were incubated for 5 days at 37° C. in a 5% CO2 atmosphere. The extent of CPE was determined via metabolism of the vital dye 3-(4,5-dimethylthiaxol-2-yl)-2,5-diphenyltetrazolium bromide (MTT). MTT (1 mg/ml) was added to each well and plates incubated for 2 hours incubation at 37° C. Wells were aspirated, iso-propanol (200 μL) was added and absorbance values read at 540/650 nm. Compound concentrations that inhibited CPE by 50% (EC50) and developed cytotoxicity (CC50) were calculated using non-linear regression analysis.
Representative mean EC50 values obtained are also provided. In the inventors' experience, replicate EC50 values usually fall within three standard deviations of the mean.

[1] = read-out: Activity Range (RSV A2 EC50)
[2] = mean EC50, read-out: RSV A2 EC50

`CCC12Cn3cccc3C(=O)N1CCN2C(=O)c1conc1C` (stereo not shown) [Compound 20] showed an EC50 [1] of 500 to 10000 nM and an EC50 [2] of 6700 nM.
For `CC(=O)c1cc2n(c1)CC1(c3ccc(Cl)cc3)N(C(=O)c3cnoc3C)CCN1C2=O` (stereo not shown) [Compound 24, 7-acetyl-10a-(4-chlorophenyl)-1-[(5-methyl-1,2-oxazol-4-yl)carbonyl]-2,3,10,10a-tetrahydro-1H,5H-imidazo[1,2-a]pyrrolo[1,2-d]pyrazin-5-one], the EC50 [1] was > 10000 nM.
With `Cc1nocc1C(=O)N1CCN2C(=O)c3ccc(C)n3CC12c1ccc(CO)cc1` (stereo not shown) [Compound 153] the EC50 [1] was < 49 nM and the EC50 [2] was 6.2 nM.
Molecule `Cc1nocc1C(=O)N1CCN2C(=O)c3cccn3CC12c1ccc(C#N)cc1` (stereo not shown) [Compound 37, 4-{1-[(3-methyl-1,2-oxazol-4-yl)carbonyl]-5-oxo-2,3-dihydro-1H,5H-imidazo[1,2-a]pyrrolo[1,2-d]pyrazin-10a(10H)-yl}benzonitrile] has an EC50 [1] of 100 to 499 nM and an EC50 [2] of 120 nM.
In the case of `Cc1ccc(C23Cn4c(cccc4=O)C(=O)N2CCN3C(=O)c2conc2C)cc1` (stereo not shown) [Compound 150], the EC50 [1] is reported as < 49 nM and the EC50 [2] is reported as 11 nM.
For `COc1ccc(C23Cn4c(C)ccc4C(=O)N2CCN3C(=O)c2conc2C)cc1` (stereo not shown) [Compound 107, 10a-(4-methoxyphenyl)-8-methyl-1-[(3-methyl-1,2-oxazol-4-yl)carbonyl]-2,3,10,10a-tetrahydro-1H,5H-imidazo[1,2-a]pyrrolo[1,2-d]pyrazin-5-one], the EC50 [1] was < 49 nM and the EC50 [2] was 14 nM.
In the case of `Cc1ccc([C@]23Cn4cccc4C(=O)N2CCN3C(=O)c2conc2C)cn1` [Compound 77B, (10aR)-1-[(3-methyl-1,2-oxazol-4-yl)carbonyl]-10a-(6-methylpyridin-3-yl)-2,3,10,10a-tetrahydro-1H,5H-imidazo[1,2-a]pyrrolo[1,2-d]pyrazin-5-one], the EC50 [1] is reported as < 49 nM and the EC50 [2] is reported as 19 nM.
In the case of `CCc1nocc1C(=O)N1CCN2C(=O)c3cccn3CC12c1ccc(OC)cc1` (stereo not shown) [Compound 67], the EC50 [1] is reported as < 49 nM and the EC50 [2] is reported as 17 nM.
`COc1ccc(C23Cn4c(cccc4=O)C(=O)N2CCN3C(=O)c2conc2C)cc1` (stereo not shown) [Compound 149] gave an EC50 [1] of 100 to 499 nM and an EC50 [2] of 130 nM.
With `Cc1nocc1C(=O)N1CCN2C(=O)c3cc(-c4ccccn4)nn3CC12c1ccc(Cl)cc1` (stereo not shown) [Compound 63, 10a-(4-chlorophenyl)-1-[(3-methyl-1,2-oxazol-4-yl)carbonyl]-7-(pyridin-2-yl)-2,3,10,10a-tetrahydro-1H,5H-imidazo[1,2-a]pyrazolo[1,5-d]pyrazin-5-one] the EC50 [1] was < 49 nM and the EC50 [2] was 21 nM.
`Cc1nocc1C(=O)N1CCN2C(=O)c3ccc(C)n3CC12c1ccc(F)cc1` (stereo not shown) [Compound 154, 10a-(4-fluorophenyl)-8-methyl-1-[(3-methyl-1,2-oxazol-4-yl)carbonyl]-2,3,10,10a-tetrahydro-1H,5H-imidazo[1,2-d]pyrrolo[1,2-d]pyrazin-5-one] was tested, and the EC50 [1] was < 49 nM and the EC50 [2] was 2.3 nM.
In the case of `Cc1nocc1C(=O)N1CCN2C(=O)c3cccn3CC12c1ccc(F)cc1` (stereo not shown) [Compound 2], the EC50 [1] is reported as < 49 nM and the EC50 [2] is reported as 21 nM.
`Cc1nocc1C(=O)N1CCN2C(=O)c3ccc(-c4cccnc4)n3CC12c1ccc(Cl)cc1` (stereo not shown) [Compound 33] was tested, and the EC50 [1] was 500 to 10000 nM and the EC50 [2] was 3100 nM.
`Cc1oncc1C(=O)N1CCN2C(=O)c3ccc(-c4ccncc4)n3CC12c1ccc(Cl)cc1` (stereo not shown) [Compound 32, 10a-(4-chlorophenyl)-1-[(5-methyl-1,2-oxazol-4-yl)carbonyl]-8-(pyridin-4-yl)-2,3,10,10a-tetrahydro-1H,5H-imidazo[1,2-a]pyrrolo[1,2-d]pyrazin-5-one] gave an EC50 [1] of 500 to 10000 nM and an EC50 [2] of 690 nM.
`COc1ccc(C23Cn4cc(C#N)cc4C(=O)N2CCN3C(=O)c2conc2C)cc1` (stereo not shown) [Compound 89, 10a-(4-methoxyphenyl)-1-[(3-methyl-1,2-oxazol-4-yl)carbonyl]-5-oxo-2,3,10,10a-tetrahydro-1H,5H-imidazo[1,2-a]pyrrolo[1,2-d]pyrazine-7-carbonitrile] gave an EC50 [1] of 500 to 10000 nM and an EC50 [2] of 1600 nM.
`COc1ccc(C23Cn4cccc4C(=O)N2CCN3C(=O)c2conc2C)nc1` (stereo not shown) [Compound 115] gave an EC50 [1] of 100 to 499 nM and an EC50 [2] of 230 nM.
In the case of `COc1ccc(C23Cn4cccc4C(=O)N2CCN3C(=O)c2conc2C(C)C)cc1` (stereo not shown) [Compound 68], the EC50 [1] is reported as 50 to 99 nM and the EC50 [2] is reported as 53 nM.
With `COc1ccc(C23Cn4cccc4C(=O)N2CCN3S(=O)(=O)c2ccccc2)cc1` (stereo not shown) [Compound 131] the EC50 [1] was > 10000 nM.
In the case of `O=C(c1conc1C(F)(F)F)N1CCN2C(=O)c3cccn3CC12c1ccc(Cl)cc1` (stereo not shown) [Compound 49], the EC50 [1] is reported as < 49 nM and the EC50 [2] is reported as 7.9 nM.
Molecule `Cc1cc2n(n1)CC1(c3ccc(Cl)cc3)N(C(=O)c3ccoc3)CCN1C2=O` (stereo not shown) [Compound 43] has an EC50 [1] of 500 to 10000 nM and an EC50 [2] of 3400 nM.
`Cc1nocc1C(=O)N1CCN2C(=O)c3cccn3CC12c1ccsc1` (stereo not shown) [Compound 73] showed an EC50 [1] of 100 to 499 nM and an EC50 [2] of 250 nM.
Molecule `Cn1cc(C(=O)N2CCN3C(=O)c4cccn4CC23c2ccc(Cl)cc2)c(C(F)(F)F)n1` (stereo not shown) [Compound 17] has an EC50 [1] of 500 to 10000 nM and an EC50 [2] of 860 nM.
For `Cc1nocc1C(=O)N1CCN2C(=O)c3cccn3CC12c1cccc(F)c1` (stereo not shown) [Compound 5], the EC50 [1] was < 49 nM and the EC50 [2] was 34 nM.
`COc1ccc(C23Cn4cccc4C(=O)N2CCN3C(=O)c2conc2C)cc1` (stereo not shown) [Compound 6] was tested, and the EC50 [1] was 50 to 99 nM and the EC50 [2] was 52 nM.
In the case of `COc1ccc(C23Cn4cccc4C(=O)N2CCN3C(=O)NCc2ccco2)cc1` (stereo not shown) [Compound 130], the EC50 [1] is reported as > 10000 nM.
`Cc1ccc(C23Cn4cccc4C(=O)N2CCN3C(=O)c2conc2C)cc1` (stereo not shown) [Compound 9] was tested, and the EC50 [1] was < 49 nM and the EC50 [2] was 13 nM.
Molecule `Cc1nocc1C(=O)N1CCN2C(=O)c3cccn3CC12c1ccc[n+]([O-])c1` (stereo not shown) [Compound 78, 1-[(3-methyl-1,2-oxazol-4-yl)carbonyl]-10a-(1-oxidopyridin-3-yl)-2,3,10,10a-tetrahydro-1H,5H-imidazo[1,2-a]pyrrolo[1,2-d]pyrazin-5-one] has an EC50 [1] of 500 to 10000 nM and an EC50 [2] of 5800 nM.
With `COc1ccc(C23Cn4cccc4C(=O)N2CCN3C(=O)c2snnc2C)cc1` (stereo not shown) [Compound 56] the EC50 [1] was 100 to 499 nM and the EC50 [2] was 370 nM.
In the case of `COc1ccc(C23Cn4cc(F)cc4C(=O)N2CCN3C(=O)c2conc2C(F)(F)F)cc1` (stereo not shown) [Compound 66], the EC50 [1] is reported as < 49 nM and the EC50 [2] is reported as 15 nM.
For `COc1ccc(C23Cn4cc(-n5ccnn5)cc4C(=O)N2CCN3C(=O)c2conc2C)cc1` (stereo not shown) [Compound 113, 10a-(4-methoxyphenyl)-1-[(3-methyl-1,2-oxazol-4-yl)carbonyl]-7-(1H-1,2,3-triazol-1-yl)-2,3,10,10a-tetrahydro-1H,5H-imidazo[1,2-a]pyrrolo[1,2-d]pyrazin-5-one], the EC50 [1] was 100 to 499 nM and the EC50 [2] was 320 nM.
Molecule `Cc1oncc1C(=O)N1CCN2C(=O)c3cccc(=O)n3CC12c1ccc(Cl)cc1` (stereo not shown) [Compound 40] has an EC50 [1] of 100 to 499 nM and an EC50 [2] of 210 nM.
For `Cc1nocc1C(=O)N1CCN2C(=O)c3cccn3CC12c1ccccn1` (stereo not shown) [Compound 103, 1-[(3-methyl-1,2-oxazol-4-yl)carbonyl]-10a-(pyridin-2-yl)-2,3,10,10a-tetrahydro-1H,5H-imidazo[1,2-a]pyrrolo[1,2-d]pyrazin-5-one], the EC50 [1] was 100 to 499 nM and the EC50 [2] was 380 nM.
`Cc1ccc(C23Cn4cccc4C(=O)N2CCN3C(=O)c2cnoc2C)cc1F` (stereo not shown) [Compound 14] gave an EC50 [1] of 50 to 99 nM and an EC50 [2] of 94 nM.
For `Cc1nocc1C(=O)N1CCN2C(=O)c3cc(CO)cn3CC12c1ccc(Cl)cc1` (stereo not shown) [Compound 29], the EC50 [1] was 500 to 10000 nM and the EC50 [2] was 1000 nM.
`COc1ccc(C23Cn4cc(-c5cncnc5)cc4C(=O)N2CCN3C(=O)c2conc2C)cc1` (stereo not shown) [Compound 90] gave an EC50 [1] of 500 to 10000 nM and an EC50 [2] of 1300 nM.
